Experimental findings from ChEMBL document CHEMBL1759846, “Identification of potent, soluble, and orally active TRPV1 antagonists” (Bioorg Med Chem Lett, 2011) are described below.

Data set [1] in a line: Intrinsic clearance in human liver microsomes. Type of data set: ADME, Microsome.
A short description of data set [2]: Octanol-water partition coefficient, log D of the compound at pH 7.4 by RP-HPLC analysis. Type of data set: physicochemical.
Data set [3] deals with Transient receptor potential cation channel subfamily V member 1 (Homo sapiens, UniProt Q8NER1). Kind of data set: Antagonist activity at human TRPV1 expressed in CHO-K1 cells assessed as inhibition of capsaicin-induced intracellular Ca2+ influx by FLIPR assay. In kind it is functional, cell-based.
Chain of Transient receptor potential cation channel subfamily V member 1 (Q8NER1 whole entry): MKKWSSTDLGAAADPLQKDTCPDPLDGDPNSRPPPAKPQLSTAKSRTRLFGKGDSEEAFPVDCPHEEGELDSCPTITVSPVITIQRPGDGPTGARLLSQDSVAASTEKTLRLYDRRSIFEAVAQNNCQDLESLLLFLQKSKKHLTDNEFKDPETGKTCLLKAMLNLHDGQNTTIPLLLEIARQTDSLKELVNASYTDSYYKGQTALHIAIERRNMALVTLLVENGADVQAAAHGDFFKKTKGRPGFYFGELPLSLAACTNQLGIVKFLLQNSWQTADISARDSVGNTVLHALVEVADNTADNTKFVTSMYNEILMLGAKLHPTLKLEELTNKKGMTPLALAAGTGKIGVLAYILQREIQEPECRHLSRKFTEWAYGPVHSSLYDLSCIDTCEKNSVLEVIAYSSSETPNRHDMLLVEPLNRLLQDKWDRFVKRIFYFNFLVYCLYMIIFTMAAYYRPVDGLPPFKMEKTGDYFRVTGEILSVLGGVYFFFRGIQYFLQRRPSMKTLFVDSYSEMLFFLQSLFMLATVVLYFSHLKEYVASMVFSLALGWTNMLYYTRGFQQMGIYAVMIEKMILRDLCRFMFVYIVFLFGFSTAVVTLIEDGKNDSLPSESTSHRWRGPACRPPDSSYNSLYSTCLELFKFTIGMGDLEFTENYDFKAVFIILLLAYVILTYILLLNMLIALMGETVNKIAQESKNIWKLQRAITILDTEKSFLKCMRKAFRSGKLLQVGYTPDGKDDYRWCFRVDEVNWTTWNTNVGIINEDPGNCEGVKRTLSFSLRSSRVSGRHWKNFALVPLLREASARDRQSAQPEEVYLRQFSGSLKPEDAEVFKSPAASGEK
Data set [4] in a line: Intrinsic clearance in rat liver microsomes. In kind it is ADME, Microsome. Background: Microsomes from liver hold many membrane-bound enzymes, among them those of drug oxidation.
Data set [5] in a line: Aqueous solubility of the compound in 0.05 M phosphate buffer at pH 7.4 by shake-flask method. Type of data set: physicochemical.
The nature of data set [6]: Plasma protein binding in Wistar rat. In kind it is ADME, cell-free. To be noted: read-out: PPB (converted).
Data set [7] in a line: Tmax in Wistar rat at 10 mg/kg, po. Also noted: dose 10 mg/kg, route oral. In kind it is ADME, organism-based. The note with it: in vivo.
Data set [8] is described as follows: Plasma protein binding in human. In kind it is ADME, cell-free. To be noted: read-out: PPB (converted).
A short description of data set [9]: Volume of distribution at steady state in Wistar rat at 10 mg/kg, po and 2 mg/kg, iv. To be noted: in vivo, read-out: Vdss. Type of data set: ADME, organism-based.
Data set [10] in a line: Oral bioavailability in Wistar rat at 10 mg/kg. To be noted: in vivo. Type of data set: ADME, organism-based.
Data set [11] can be described thus: Half life in Wistar rat plasma at 10 mg/kg, po and 2 mg/kg, iv. In kind it is ADME, organism-based.
Data set [12] is described as follows: Clearance in Wistar rat at 10 mg/kg, po and 2 mg/kg, iv. In kind it is ADME, organism-based. To be noted: in vivo.
Data set [13] is described as follows: Cmax in Wistar rat at 10 mg/kg, po. Type of data set: ADME, organism-based. Also noted: dose 10 mg/kg, route oral. To be noted: in vivo.
The subject of data set [14] is Hepatocyte. The experiment in a line: Intrinsic clearance in rat hepatocytes. In kind it is ADME, cell-based, Liver.
Data set [15] has as its system Rattus norvegicus. The experiment in a line: Antiinflammatory activity against capsaicin-induced thermal hyperalgesia in rat assessed as paw withdrawal latency at 3 to 30 umol/kg, po administered 2 hrs before capsaicin challenge measured after 15 mins. In kind it is functional, organism-based.
The subject of data set [16] is Rattus norvegicus. Kind of data set: Antiinflammatory activity against capsaicin-induced thermal hyperalgesia in po dosed rat assessed as paw withdrawal latency administered 2 hrs before capsaicin challenge measured after 15 mins. In kind it is functional.

In brackets after ≈: the same amount, converted by molar mass. Activity calls are given as the source filed them. A value given as a limit tells only on which side of the number the result lay.

As a reminder, the microsomal CLint is the rate of metabolic loss divided by the concentration. The low end stands for greater metabolic stability, the high end for faster metabolism. A word on the logD: it is lipophilicity at a set pH, counting ionised and neutral species. Lower therefore signals a more hydrophilic compound. What is called IC50 is the concentration that gives 50% inhibition. On to `O=C(N[C@@H]1CCC[C@H](O)C1)c1noc(-c2ccc(C(F)(F)F)cc2)c1CNCC1CCC1`, for which the microsomal CLint in data set [1] was 21 µL/min/mg; in data set [4], 144 µL/min/mg. For the same compound, the logD in data set [2] came out at 4.4. In data set [3], the IC50 was 1.26 nM.
For orientation: solubility (thermodynamic) means solubility found after equilibrating the solid with the medium. Compound `CCN(Cc1c(C(=O)N[C@@H]2CCC[C@H](O)C2)noc1-c1ccc(C(F)(F)F)cc1)C(C)C` displayed a logD in [2] of 4.1. Further, in data set [3], the IC50 is 25.1 nM. Besides, the thermodynamic solubility in data set [5] was 85 µg/mL (≈ 187 µM).
With `O=C(N[C@@H]1CCC[C@H](O)C1)c1noc(-c2ccc(C(F)(F)F)cc2)c1CNCC1CC1`, the microsomal CLint was 48 µL/min/mg in data set [1] and 55 µL/min/mg in [4]. Besides, the logD in [2] was 3.5. In addition, the thermodynamic solubility in data set [5] was 77 µg/mL (≈ 176 µM).
`CN(Cc1c(C(=O)N[C@@H]2CCC[C@H](O)C2)noc1-c1ccc(C(F)(F)F)cc1)C1CCOCC1` yielded a logD in [2] of 3.7. Also, in data set [3], the IC50 is 79.4 nM. In addition, the solubility (thermodynamic) in data set [5] worked out at 82 µg/mL (≈ 170 µM).
One may read the Tmax as the time from dosing to the highest level. In general, bioavailability refers to dose-corrected exposure relative to a reference, in per cent. Read a low bioavailability as little systemic uptake. As usually defined, the half-life is the time needed for the level to fall by half in the phase considered. Higher therefore signals slow loss. Broadly, the Cmax is the highest concentration seen after dosing. With `CC(C)[C@H](CO)NCc1c(C(=O)N[C@@H]2CCC[C@H](O)C2)noc1-c1ccc(C(F)(F)F)cc1`, the microsomal CLint in data set [1] was determined as 12 µL/min/mg; in data set [4], 41 µL/min/mg. Besides, the fraction unbound in [6] is 0.116; in data set [8], 0.256. The compound also gave a logD in data set [2] of 4.2. Also, the IC50 in data set [3] was 2.51 nM. Further, in data set [7], the Tmax worked out at 1.5 h. Besides, in data set [9], the Vd amounted to 3.5 L/kg. In data set [10], this compound registered a bioavailability of 4%. In [11], this compound had a half-life of 4.3 h. In [12], the clearance is 13.5 mL/min/kg. Also, in data set [13], the Cmax stood at 230 nM. In data set [5], the solubility (thermodynamic) turned out to be 79 µg/mL (≈ 168 µM).
In data set [2], `CN(Cc1c(C(=O)N[C@@H]2CCC[C@H](O)C2)noc1-c1ccc(C(F)(F)F)cc1)[C@@H]1CCOC1` gave a logD of 4.5. Further, the IC50 in data set [3] was 12.6 nM. The compound further returned a thermodynamic solubility in [5] of 6.6 µg/mL (≈ 14.1 µM).
For `CN(CCS(C)(=O)=O)Cc1c(C(=O)N[C@@H]2CCC[C@H](O)C2)noc1-c1ccc(C(F)(F)F)cc1` the same measures were 3.6, 1260 nM and 26 µg/mL (≈ 51.6 µM).
On the same counts, the results for `COCCNCc1c(C(=O)N[C@@H]2CCC[C@H](O)C2)noc1-c1ccc(C(F)(F)F)cc1` are 3.7, 126 nM and 80 µg/mL (≈ 181 µM).
With `CC(C)(CO)CNCc1c(C(=O)N[C@@H]2CCC[C@H](O)C2)noc1-c1ccc(C(F)(F)F)cc1`, the microsomal CLint in data set [1] amounted to 12 µL/min/mg; in data set [4], 93 µL/min/mg. In addition, the fraction unbound is 0.168 in [6] and 0.361 in [8]. For the same compound, the logD in data set [2] worked out at 3.5. For the same compound, the IC50 in data set [3] is 3.16 nM. In addition, the CL in data set [14] is 10 µL/min. This compound displayed a solubility (thermodynamic) in data set [5] of 89 µg/mL (≈ 190 µM).
Take `O=C(N[C@@H]1CCC[C@H](O)C1)c1noc(-c2ccc(C(F)(F)F)cc2)c1CNC1CC1`: the microsomal CLint in [1] was 17 µL/min/mg; in data set [4], under 12 µL/min/mg. For the same compound, the fraction unbound in data set [6] was 0.064; in [8] it was 0.118. The compound also came in with a logD in [2] of 4.5. In addition, in data set [3], the IC50 is 3.16 nM. Besides, in data set [14], the CL is under 6 µL/min. In data set [5], this compound registered a solubility (thermodynamic) of 21 µg/mL (≈ 49.6 µM).
In the case of `O=C(N[C@@H]1CCC[C@H](O)C1)c1noc(-c2ccc(C(F)(F)F)cc2)c1CNC1CCC1`, the logD in [2] stood at 4.3. The IC50 in data set [3] was 15.8 nM. For the same compound, in [5], the solubility (thermodynamic) amounted to 26 µg/mL (≈ 59.4 µM).
For `NC(=O)C1CCN(Cc2c(C(=O)N[C@@H]3CCC[C@H](O)C3)noc2-c2ccc(C(F)(F)F)cc2)CC1` the same measures were 3.6, 3160 nM and 30 µg/mL (≈ 60.7 µM).
For `CN(Cc1c(C(=O)N[C@@H]2CCC[C@H](O)C2)noc1-c1ccc(C(F)(F)F)cc1)C[C@@H]1CCCO1` the same measures were 3.6, 5.01 nM and 31 µg/mL (≈ 64.4 µM).
In turn, `COCCN(C)Cc1c(C(=O)N[C@@H]2CCC[C@H](O)C2)noc1-c1ccc(C(F)(F)F)cc1` returned a logD in [2] of 4. In [3], the IC50 was 7.94 nM. The solubility (thermodynamic) in data set [5] is 83 µg/mL (≈ 182 µM).
In the case of `C[C@H](NCc1c(C(=O)N[C@@H]2CCC[C@H](O)C2)noc1-c1ccc(C(F)(F)F)cc1)C(F)(F)F`, the microsomal CLint in data set [1] turned out to be 66 µL/min/mg; in data set [4], 49 µL/min/mg. The fraction unbound was 0.037 in [6] and 0.048 in data set [8]. Moreover, the logD in data set [2] turned out to be 5.6. For the same compound, the IC50 in [3] was 0.158 nM. For the same compound, the solubility (thermodynamic) in [5] worked out at 3.5 µg/mL (≈ 7.3 µM).
Regarding `CC(C)N(C)Cc1c(C(=O)N[C@@H]2CCC[C@H](O)C2)noc1-c1ccc(C(F)(F)F)cc1`, the logD in data set [2] amounted to 4. The IC50 in [3] was 25.1 nM. Further, in [5], the thermodynamic solubility was 80 µg/mL (≈ 182 µM).
For `CC(C)[C@@H](CO)NCc1c(C(=O)N[C@@H]2CCC[C@H](O)C2)noc1-c1ccc(C(F)(F)F)cc1` the same measures were 4.1, 10 nM and 81 µg/mL (≈ 173 µM).
`O=C(N[C@@H]1CCC[C@H](O)C1)c1noc(-c2ccc(C(F)(F)F)cc2)c1CNCC(O)C(F)(F)F` (some centres undefined): the logD in data set [2] is 4.7. Further, in [3], the IC50 was 10 nM. In data set [5], the solubility (thermodynamic) was found to be 87 µg/mL (≈ 176 µM).
Regarding `CC(C)CNCc1c(C(=O)N[C@@H]2CCC[C@H](O)C2)noc1-c1ccc(C(F)(F)F)cc1`, the results for the microsomal CLint in data set [1] and in data set [4] were 12 µL/min/mg and 107 µL/min/mg, respectively. The values for the fraction unbound in data set [6] and in data set [8] were 0.242 and 0.177, respectively. Also, in [2], the logD stood at 4.3. Further, the IC50 in data set [3] is 1 nM. The CL in data set [14] was found to be 12 µL/min. Also, in [7], the Tmax was found to be 2 h. The outcome in data set [15] was Active. Besides, in [9], the Vd amounted to 7.6 L/kg. The compound also registered a bioavailability in data set [10] of 33%. In addition, the MED in [16] came to 30 µmol/kg. For the same compound, the half-life in data set [11] was 4 h. This compound also registered a clearance in [12] of 69 mL/min/kg. For the same compound, in [13], the Cmax amounted to 420 nM. The same compound had a thermodynamic solubility in [5] of 78 µg/mL (≈ 177 µM).
For `CC(C)NCc1c(C(=O)N[C@@H]2CCC[C@H](O)C2)noc1-c1ccc(C(F)(F)F)cc1`, the microsomal CLint in data set [1] and in [4] was under 12 µL/min/mg each time. The fraction unbound in data set [6] is 0.271; in data set [8] it was 0.25. This compound yielded a logD in data set [2] of 3. In [14], this compound came in with a CL of under 6 µL/min. For the same compound, in data set [7], the Tmax is 2 h. In data set [9], the Vd is 5.9 L/kg. The compound further yielded a bioavailability in data set [10] of 20%. The same compound had a half-life in data set [11] of 7.9 h. In data set [12], this compound yielded a clearance of 12.5 mL/min/kg. The same compound registered a Cmax in data set [13] of 720 nM. The solubility (thermodynamic) in [5] was determined as 82 µg/mL (≈ 193 µM).
